Test results: PubChem BioAssay AID248 (DTP/NCI, 2004)
Where “and” joins values, the source holds several entries; their conditions need not be identical. Equal entries are not always repeated. Toxic doses and inconclusive results are not listed.

System: L1210 leukemia ip in BDF1 mice, survival T/C
Test: NCI In Vivo Anticancer Drug Screen. Data for tumor model L1210 Leukemia (intraperitoneal) in B6D2F1 (BDF1) mice
Conditions: endpoint: mean survival time, higher = longer survival
Procedure, shortened: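 Transplanted-tumor mice were given test agent; controls received vehicle only. Survival readings from the two groups were divided (treated over control).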

[1] = dose: 100.0 mg/kg/injection, schedule: Q04DX002 (ip), vehicle: Klucel (hydroxypropylcellulose) (HPC)
[2] = dose: 200.0 mg/kg/injection, schedule: Q04DX002 (ip), vehicle: Klucel (hydroxypropylcellulose) (HPC)
[3] = dose: 400.0 mg/kg/injection, schedule: Q04DX002 (ip), vehicle: Klucel (hydroxypropylcellulose) (HPC)
[4] = dose: 20.0 mg/kg/injection, schedule: Q01DX Z (ip), vehicle: saline
[5] = dose: 12.5 mg/kg/injection, schedule: Q04DX003 (ip), vehicle: saline
[6] = dose: 25.0 mg/kg/injection, schedule: Q04DX003 (ip), vehicle: saline
[7] = dose: 50.0 mg/kg/injection, schedule: Q04DX003 (ip), vehicle: saline
[8] = dose: 100.0 mg/kg/injection, schedule: Q01DX001 (ip), vehicle: saline
[9] = dose: 200.0 mg/kg/injection, schedule: Q01DX001 (ip), vehicle: saline
[10] = dose: 400.0 mg/kg/injection, schedule: Q01DX001 (ip), vehicle: saline
[11] = dose: 100.0 mg/kg/injection, schedule: Q04DX003 (ip), vehicle: saline
[12] = dose: 200.0 mg/kg/injection, schedule: Q04DX003 (ip), vehicle: saline
[13] = dose: 400.0 mg/kg/injection, schedule: Q04DX003 (ip), vehicle: saline
[14] = dose: 50.0 mg/kg/injection, schedule: Q04DX002 (ip), vehicle: saline with Tween-80
[15] = dose: 100.0 mg/kg/injection, schedule: Q04DX002 (ip), vehicle: saline with Tween-80
[16] = dose: 50.0 mg/kg/injection, schedule: Q01DX001 (ip), vehicle: carboxymethylcellulose (CMC)
[17] = dose: 100.0 mg/kg/injection, schedule: Q01DX001 (ip), vehicle: carboxymethylcellulose (CMC)
[18] = dose: 100.0 mg/kg/injection, schedule: Q01DX009 (ip), vehicle: Klucel (hydroxypropylcellulose) (HPC)
[19] = dose: 100.0 mg/kg/injection, schedule: Q04DX003 (ip), vehicle: Klucel (hydroxypropylcellulose) (HPC)
[20] = dose: 200.0 mg/kg/injection, schedule: Q01DX001 (ip), vehicle: carboxymethylcellulose (CMC)
[21] = dose: 200.0 mg/kg/injection, schedule: Q04DX003 (ip), vehicle: Klucel (hydroxypropylcellulose) (HPC)
[22] = dose: 100.0 mg/kg/injection, schedule: Q01DX009 (ip), vehicle: saline with Tween-80
[23] = dose: 200.0 mg/kg/injection, schedule: Q01DX009 (ip), vehicle: Klucel (hydroxypropylcellulose) (HPC)
[24] = dose: 200.0 mg/kg/injection, schedule: Q01DX009 (ip), vehicle: saline with Tween-80

`C[CH2][Sn]([CH2]C)([O]S(C)(=O)=O)[O]S(C)(=O)=O` was tested, and the T/C (dose: 0.78 mg/kg/injection, schedule: Q01DX009 (ip), vehicle: saline) was 95 % of control, the T/C (dose: 1.56 mg/kg/injection, schedule: Q01DX009 (ip), vehicle: saline) was 98 % of control and the T/C (dose: 3.12 mg/kg/injection, schedule: Q01DX009 (ip), vehicle: saline) was 106 % of control. For the same compound, the T/C (dose: 6.25 mg/kg/injection, schedule: Q01DX009 (ip), vehicle: saline) was 116 % of control and the T/C (dose: 12.5 mg/kg/injection, schedule: Q01DX009 (ip), vehicle: saline) was 102 % of control.
For `CCCCNC(=O)c1ccc(C(=O)c2ccc(C(=O)NCCCC)c(C(=O)O)c2)cc1C(=O)O`, the T/C [1] was 90 % of control, the T/C [2] was 87 % of control and the T/C [3] was 87 % of control.
For `COc1ccc(-c2cc(=O)c3c(O)c(OC)c(O)cc3o2)cc1`, the T/C [4] was 101 % of control, the T/C (dose: 40.0 mg/kg/injection, schedule: Q01DX Z (ip), vehicle: saline) was 108 % of control and the T/C (dose: 80.0 mg/kg/injection, schedule: Q01DX Z (ip), vehicle: saline) was 95 % of control.
For `CC1(C)CC(N=Cc2ccccc2O)CC(C)(C)N1O.CC1(C)CC(N=Cc2ccccc2O)CC(C)(C)N1O.[Cu]`, the T/C [5] was 89 % of control, the T/C [6] was 101 % of control and the T/C [7] was 101 % of control.
For `CC(C)=NNC(=O)CNc1cccc(C(F)(F)F)c1`, the T/C [1] was 107 % of control, the T/C [2] was 110 % of control and the T/C [3] was 100 % of control.
With `Cc1ccc(C)c2c1C1=C(CCCC1)S2(=O)=O` the T/C [8] was 96 % of control, the T/C [9] was 102 % of control and the T/C [10] was 104 % of control.
With `NC(=O)NC(=O)C1C2CC3OC(=O)C1C3C2` (centres undefined) the T/C [11] was 93 % of control, the T/C [12] was 93 % of control and the T/C [13] was 98 % of control.
With `COc1ccccc1C(=O)N/N=C/c1cccc([N+](=O)[O-])c1` the T/C [1] was 96 % of control, the T/C [2] was 89 % of control and the T/C [3] was 89 % of control.
`CN(C)N=Nc1ccc(CCC(=O)NN)cc1` was tested, and the T/C [4] was 111 % of control, the T/C (dose: 30.0 mg/kg/injection, schedule: Q01DX Z (ip), vehicle: saline) was 114 % of control and the T/C (dose: 67.0 mg/kg/injection, schedule: Q01DX Z (ip), vehicle: saline) was 91 % of control.
With `CC1(O)CSC(C)(O)CS1` (centres undefined) the T/C [14] was 98 % of control and the T/C [15] was 88 % of control.
In the case of `Cc1ccc([N+](=O)[O-])cc1CN(CCO)CCO`, the T/C [8] is reported as 101 % of control, the T/C [9] is reported as 95 % of control and the T/C [10] is reported as 98 % of control.
With `CC(C)(NCc1ccccc1)C(=O)c1ccccc1` the T/C [16] was 100 % of control, the T/C (dose: 50.0 mg/kg/injection, schedule: Q04DX003 (ip), vehicle: Klucel (hydroxypropylcellulose) (HPC)) was 95 % of control and the T/C [17] was 102 % of control. For the same compound, the T/C [18] was 105 % of control, the T/C [19] was 93 % of control and the T/C [20] was 90 % of control. For the same compound, the T/C [21] was 95 % of control.
For `Cc1cccc(Cl)[n+]1[O-]`, the T/C [11] was 97 % of control, the T/C [12] was 97 % of control and the T/C [13] was 86 % of control.
In the case of `CCN(CC)CC(=O)NCC(CCN(C)C)(CCN(C)C)c1cccc2ccccc12`, the T/C (dose: 25.0 mg/kg/injection, schedule: Q04DX002 (ip), vehicle: saline with Tween-80) is reported as 115 % of control, the T/C [14] is reported as 96 % of control and the T/C [22] is reported as 93 % of control. For the same compound, the T/C [15] was 107 % of control.
`CCN(CC)CCOc1ccccc1Br` was tested, and the T/C [5] was 97 % of control, the T/C (dose: 25.0 mg/kg/injection, schedule: Q01DX009 (ip), vehicle: saline) was 95 % of control and the T/C [6] was 96 % of control. The T/C (dose: 50.0 mg/kg/injection, schedule: Q01DX009 (ip), vehicle: saline) was 98 % of control, the T/C [7] was 97 % of control and the T/C [11] was 100 % of control.
`CCN(CC)Cc1ccccc1COC(=O)/C=C/c1ccccc1` was tested, and the T/C (dose: 100.0 mg/kg/injection, schedule: Q04DX002 (ip), vehicle: saline) was 108 % of control, the T/C (dose: 200.0 mg/kg/injection, schedule: Q04DX002 (ip), vehicle: saline) was 86 % of control and the T/C (dose: 400.0 mg/kg/injection, schedule: Q04DX002 (ip), vehicle: saline) was 108 % of control.
In the case of `COc1cc(C=Nc2ccc(-c3csc(COc4ccccc4)n3)cc2)ccc1N(CCCl)CCCl`, the T/C (dose: 3.7 mg/kg/injection, schedule: Q01DX015 (ip), vehicle: carboxymethylcellulose (CMC)) is reported as 116 % of control, the T/C (dose: 6.2 mg/kg/injection, schedule: Q01DX015 (ip), vehicle: carboxymethylcellulose (CMC)) is reported as 117 % of control and the T/C (dose: 9.3 mg/kg/injection, schedule: Q01DX015 (ip), vehicle: carboxymethylcellulose (CMC)) is reported as 119 % of control. For the same compound, the T/C (dose: 10.0 mg/kg/injection, schedule: Q01DX001 (ip), vehicle: carboxymethylcellulose (CMC)) was 121 % of control, the T/C (dose: 15.0 mg/kg/injection, schedule: Q01DX015 (ip), vehicle: carboxymethylcellulose (CMC)) was 124 % of control and the T/C (dose: 20.0 mg/kg/injection, schedule: Q01DX001 (ip), vehicle: carboxymethylcellulose (CMC)) was 123 % of control. For the same compound, the T/C (dose: 40.0 mg/kg/injection, schedule: Q01DX001 (ip), vehicle: carboxymethylcellulose (CMC)) was 156 % of control, the T/C [16] was 107 % of control and the T/C (dose: 50.0 mg/kg/injection, schedule: Q01DX015 (ip), vehicle: carboxymethylcellulose (CMC)) was 96 % of control and 104 % of control and 92 % of control. For the same compound, the T/C (dose: 66.6 mg/kg/injection, schedule: Q01DX001 (ip), vehicle: carboxymethylcellulose (CMC)) was 164 % of control, the T/C [17] was 156 % of control and the T/C [20] was 104 % of control.
For `O=C1O/C(=C/c2ccccc2)C(O)=C1c1ccccc1`, the T/C [15] was 93 % of control and the T/C (dose: 200.0 mg/kg/injection, schedule: Q04DX002 (ip), vehicle: saline with Tween-80) was 103 % of control.
In the case of `CC1([N+](=O)[O-])COC2(CCCCC2)OC1`, the T/C (dose: 50.0 mg/kg/injection, schedule: Q01DX009 (ip), vehicle: Klucel (hydroxypropylcellulose) (HPC)) is reported as 100 % of control, the T/C [18] is reported as 96 % of control and the T/C [23] is reported as 91 % of control.
`CC(=O)OC(C)(C)Cc1ccccc1` was tested, and the T/C [22] was 90 % of control and the T/C [24] was 108 % of control.
`CC(=O)CC(=O)Nc1cc(C)c(NC(=O)CC(C)=O)cc1C` was tested, and the T/C [18] was 95 % of control, the T/C [19] was 98 % of control and the T/C [23] was 93 % of control. For the same compound, the T/C [21] was 96 % of control, the T/C (dose: 400.0 mg/kg/injection, schedule: Q01DX009 (ip), vehicle: Klucel (hydroxypropylcellulose) (HPC)) was 103 % of control and the T/C (dose: 400.0 mg/kg/injection, schedule: Q04DX003 (ip), vehicle: Klucel (hydroxypropylcellulose) (HPC)) was 98 % of control.
For `CN(C)C1(Cc2ccccc2)c2ccccc2-c2ccc(Br)cc21` (centres undefined), the T/C (dose: 6.25 mg/kg/injection, schedule: Q01DX009 (ip), vehicle: saline with Tween-80) was 92 % of control, the T/C (dose: 12.5 mg/kg/injection, schedule: Q01DX009 (ip), vehicle: saline with Tween-80) was 89 % of control and the T/C (dose: 25.0 mg/kg/injection, schedule: Q01DX009 (ip), vehicle: saline with Tween-80) was 89 % of control. The T/C [22] was 88 % of control.
With `COC(=O)CCCCCCCCCCS.[Pb]` the T/C [16] was 92 % of control, the T/C [17] was 94 % of control and the T/C [20] was 94 % of control. For the same compound, the T/C (dose: 400.0 mg/kg/injection, schedule: Q01DX001 (ip), vehicle: carboxymethylcellulose (CMC)) was 97 % of control.
For `O=C(O)CSCCCc1ccccc1`, the T/C (dose: 50.0 mg/kg/injection, schedule: Q01DX009 (ip), vehicle: saline with Tween-80) was 101 % of control, the T/C [22] was 95 % of control and the T/C (dose: 100.0 mg/kg/injection, schedule: Q04DX003 (ip), vehicle: saline with Tween-80) was 102 % of control. The T/C [24] was 101 % of control, the T/C (dose: 200.0 mg/kg/injection, schedule: Q04DX003 (ip), vehicle: saline with Tween-80) was 102 % of control and the T/C (dose: 400.0 mg/kg/injection, schedule: Q04DX003 (ip), vehicle: saline with Tween-80) was 102 % of control.
`CCOC1OC(=O)c2cccc3ccc4cccc1c4c23` (centres undefined) was tested, and the T/C [1] was 90 % of control, the T/C [2] was 86 % of control and the T/C [3] was 93 % of control.
